# Marks after values point to notes of the source that are not given here.
# Legend:
# [1] = test system: male senescence accelerated mouse resistant-1 (SAMR1, R1) strain animals; test: Sleep/wake EEG/EMG recording and wake circadian phase in SAMR1 mice after oral administration; type: in vivo
# Excerpt: (§1) A compound of Formula (I) was finely crushed and suspended in vehicle, a mixture of 0.5% w/v methylcellulose 400 cP in distilled water. Experimental data were collected on male senescence accelerated mouse prone-8 (“SAMP8” or “P8”) strain animals and male senescence accelerated mouse resistant-1 (“SAMR1” or “R1”) strain animals at the age of 21 weeks. P8 mice are known to show accelerated symptoms of aging and also pathological and behavioral symptoms of Alzheimer's disease, while R1 mice are used to represent a normal aging process and are also used as a control strain for P8 mice. See, e.g., Miyamoto, et al., Exp. Geron., 1997, 32, 139-48; Morley et al., Curr. Pharm. Des., 2012, 18, 1123-30.
# (§2) Electroencephalogram (“EEG”) and electromyogram (“EMG”) electrodes were implanted on each mouse at 17-18 weeks of age, and the mice were then allowed to recover for at least 18 days in individual recording cages, where they could freely move, under a 12-hour light/12-hour dark cycle. Amplified EEG and EMG signals were digitally recorded for 3 days, separated into individual 24-hour recordings, which were initiated at each lights-on event. During the first 30 minutes of the light cycle (ZT 0-0.5), each mouse received an oral administration of either vehicle or 3 mg/kg of the compound of Formula (I) in vehicle or 30 mg/kg of the compound of Formula (I) in vehicle, after which the sleep/wake behavior of mice was recorded until the next lights on event. Each mouse received every treatment in a cross-over fashion with one treatment per day in the following order: vehicle (10 mL/kg bodyweight), 3 mg/kg, and then 30 mg/kg. Some mice started with vehicle on day 1, some mice started with 3 mg/kg compound of Formula (I) on day 1, and some mice started with 30 mg/kg compound of Formula (I) on day 1.
# (§3) EEG frequency and EMG activity signal data were analyzed using software from Kissei Comtec Co., Ltd. to characterize every 10 second epoch as either rapid eye movement (REM) sleep, non-REM sleep, or wakefulness. Then, accumulated wakefulness, non-REM sleep, and REM sleep times over the light cycle (11.5 hours) and the dark cycle (12 hours) were calculated. Additionally, latencies to sleep and REM sleep were calculated as the first appearance of 6 or more epochs of uninterrupted sleep or one or more epochs of REM sleep after the dosing event, respectively. The circadian rhythm parameter phase was determined as the inflection point of a cosine curve fit to the wakefulness distribution in 30 minute bins across the day for every individual mouse using JTK_CYCLE software. Hughes, et al., J. Biol. Rhythms, 2010, 25, 372-80.
# (§4) The differences between P8 mice and R1 mice (control mice) were statistically analyzed by comparing sleep/wake behavior and circadian rhythm of the vehicle-treated animals of each strain, while the effect of administration of a compound of Formula (I) on sleep/wake behavior and circadian rhythm was statistically analyzed for each strain as the difference between sleep/wake behavior and circadian rhythm on the vehicle-administration day and sleep/wake behavior and circadian rhythm on a drug-administration day. Statistical analysis of wakefulness time, non-REM sleep time, REM sleep time and latency, and sleep latency was performed with a linear mixed model which specified animal as random effect, and day, strain, treatment and the interaction between strain and treatment as fixed effects with Kenward-Roger as denominator degrees of freedom using SAS software. For estimation of wakefulness phase and its covariance, a linear mixed model was used which assumed heterogeneous variance of strain and treatment combination with Kenward-Roger as denominator and degrees of freedom using SAS software.
# [2] = test system: male senescence accelerated mouse prone-8 (SAMP8, P8) strain animals; test: Sleep/wake EEG/EMG recording and wake circadian phase in SAMP8 mice after oral administration; type: in vivo; settings: for Wake circadian phase, Phase (ZT): least square mean ± standard error
# Excerpt: as §1, §2, §3, §4
# [3] = 3 and 30 mg/kg oral during ZT 0-0.5, vs vehicle
# [4] = 3 and 30 mg/kg oral, vs vehicle (FIG. 2)
# [5] = P8 mice, 3 mg/kg oral at ZT 0-0.5
# [6] = P8 mice, 30 mg/kg oral at ZT 0-0.5
# [7] = P8 mice, 3 and 30 mg/kg oral during ZT 0-0.5, vs vehicle
# [8] = P8 mice, 3 and 30 mg/kg oral, vs vehicle (FIG. 2)
compound,measurement,setting,value
"Cc1ncc(OC[C@@]2(c3cccc(F)c3)C[C@H]2C(=O)Nc2ccc(F)cn2)c(C)n1 [compound of Formula (I), (1R,2S)-2-(((2,4-dimethylpyrimidin-5-yl)oxy)methyl)-2-(3-fluorophenyl)-N-(5-fluoropyridin-2-yl)cyclopropanecarboxamide]",Covariance of Phase,[1]; 3 mg/kg oral at ZT 0-0.5,5.18
same,"Wake circadian phase, Phase (ZT)","[1]; 3 mg/kg oral at ZT 0-0.5, least square mean ± standard error",15.65 ± 0.87 ZT
same,"vigilance states (wakefulness, non-REM sleep, REM sleep) during dark time","[1]; 3 mg/kg oral in previous light time, ZT 12-24",no effect on each of the vigilance states
same,Covariance of Phase,[1]; 30 mg/kg oral at ZT 0-0.5,0.05
same,"Wake circadian phase, Phase (ZT)","[1]; 30 mg/kg oral at ZT 0-0.5, least square mean ± standard error",17.02 ± 0.35^a ZT
same,wakefulness time during dark time,"[1]; 30 mg/kg oral in previous light time, ZT 12-24 (FIG. 1A)",decrease of wakefulness
same,non-REM sleep time during dark time,"[1]; 30 mg/kg oral in previous light time, ZT 12-24 (FIG. 1B)",increase of non-REM sleep
same,wakefulness time during light time,"[1]; 3 and 30 mg/kg oral at beginning of light time, ZT 0.5-12, vs vehicle (FIG. 1A)","reduces, in a dose-dependent manner, wakefulness"
same,phase covariance and phase variability (in words),[1]; [3],reduction in phase covariance and phase variability
same,wake phase shift (in words),[1]; [3],dose-dependent significant delay (right-shift) of the wake phase
same,non-REM sleep time during light time,"[1]; 3 and 30 mg/kg oral, ZT 0.5-12, vs vehicle (FIG. 1B)",increases non-REM sleep
same,REM sleep time during light time,"[1]; 3 and 30 mg/kg oral, ZT 0.5-12, vs vehicle (FIG. 1C)",dose-dependent increase in the amount of REM sleep
same,REM sleep latency,[1]; [4],dose-dependent reduction of sleep and REM sleep latencies
same,sleep latency,[1]; [4],dose-dependent reduction of sleep and REM sleep latencies
same,Covariance of Phase,[2]; [5],1.32
same,"Wake circadian phase, Phase (ZT)",[2]; [5],14.00 ± 0.56 ZT
same,Covariance of Phase,[2]; [6],2.11
same,"Wake circadian phase, Phase (ZT)",[2]; [6],15.41 ± 0.64^b ZT
same,wakefulness time during light time,"[2]; P8 mice, 3 and 30 mg/kg oral at beginning of light time, ZT 0.5-12, vs vehicle (FIG. 1A)","reduces, in a dose-dependent manner, wakefulness"
same,phase covariance and phase variability (in words),[2]; [7],reduction in phase covariance and phase variability
same,wake phase shift (in words),[2]; [7],dose-dependent and significant delay (right-shift) of the wake phase
same,wakefulness time during dark time,"[2]; P8 mice, 3 and 30 mg/kg oral in previous light time, ZT 12-24 (FIG. 1A)",dose-dependent increase in wakefulness
same,non-REM sleep time during dark time,"[2]; P8 mice, 3 and 30 mg/kg oral in previous light time, ZT 12-24 (FIG. 1B)",decreases in non-REM sleep and REM sleep
same,REM sleep time during dark time,"[2]; P8 mice, 3 and 30 mg/kg oral in previous light time, ZT 12-24 (FIG. 1C)",decreases in non-REM sleep and REM sleep
same,non-REM sleep time during light time,"[2]; P8 mice, 3 and 30 mg/kg oral, ZT 0.5-12, vs vehicle (FIG. 1B)",increases non-REM sleep
same,REM sleep time during light time,"[2]; P8 mice, 3 and 30 mg/kg oral, ZT 0.5-12, vs vehicle (FIG. 1C)",dose-dependent increase in the amount of REM sleep
same,REM sleep latency,[2]; [8],dose-dependent reduction of sleep and REM sleep latencies
same,sleep latency,[2]; [8],dose-dependent reduction of sleep and REM sleep latencies
same,wake phase relative to vehicle-treated R1 mice,"[2]; treated P8 mice, administration during ZT 0-0.5",correction to the level of vehicle-treated R1 mice
same,amounts of wake and non-REM sleep in light time relative to vehicle-treated R1 mice,"[2]; treated P8 mice, light time",normalized to the level of vehicle-treated R1 mice
